The numbers were not newly measured in patent US20120237456A1, “ORAL COMPOSITIONS CONTAINING EXTRACTS OF GARCINIA MANGOSTANA L. AND RELATED METHODS” (Colgate-Palmolive Company, priority 2009, published 2012), which cites them from elsewhere.

One series has as its system cAMP phosphodiesterase. As to conditions: reported by Chairungsrilerd and Takeuchi et al., 1996.
The conditions of series [1]: compared with BHA and a-tocopherol (vitamin E); Yoshikawa et al., 1994; Fan and Su, 1997.
The test system of a further series is DNA topoisomerase. As to conditions: Tosa et al., 1997.
A further series has as its system serotonin receptors. Conditions: Chairungsrilerd, Furukawa et al., 1996 and 1998.
The target of the next series is COX 1 (Homo sapiens, UniProt P23219). Conditions: Nakatani et al., 2002 and 2004.
COX 1, sequence (P23219 24-599): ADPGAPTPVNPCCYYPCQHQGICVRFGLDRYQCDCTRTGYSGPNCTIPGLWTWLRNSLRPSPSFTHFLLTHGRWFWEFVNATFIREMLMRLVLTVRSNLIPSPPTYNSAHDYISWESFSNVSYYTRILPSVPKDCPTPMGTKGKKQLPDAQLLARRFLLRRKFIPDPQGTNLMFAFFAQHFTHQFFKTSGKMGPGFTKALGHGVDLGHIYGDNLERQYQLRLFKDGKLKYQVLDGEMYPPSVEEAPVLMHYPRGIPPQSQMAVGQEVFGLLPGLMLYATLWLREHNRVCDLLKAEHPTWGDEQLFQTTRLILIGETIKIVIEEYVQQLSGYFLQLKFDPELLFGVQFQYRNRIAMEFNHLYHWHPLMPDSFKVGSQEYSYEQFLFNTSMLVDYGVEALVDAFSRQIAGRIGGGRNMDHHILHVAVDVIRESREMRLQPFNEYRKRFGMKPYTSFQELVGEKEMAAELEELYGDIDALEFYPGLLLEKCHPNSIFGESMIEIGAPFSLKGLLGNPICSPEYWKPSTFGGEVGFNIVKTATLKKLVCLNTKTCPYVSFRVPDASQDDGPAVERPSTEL

On to `COc1c(O)cc2oc3cc4c(c(O)c3c(=O)c2c1CC=C(C)C)CC(O)C(C)(C)O4` (centres unmarked) [Mangostanol], for which the “inhibition of cAMP phosphodiesterase” value in the series with cAMP phosphodiesterase is “strong inhibition”.

Turning to `CC(C)=CCc1c(O)cc2oc3cc(O)c(O)c(CC=C(C)C)c3c(=O)c2c1O` [γ-mangostin], the antioxidative activity result in series [1] is on record as “more potent antioxidative activity than BHA”. Also, in the series with DNA topoisomerase, the “inhibition of DNA topoisomerase” value is reported as “inhibit”. Further, the “antagonism of serotonin receptors” value with serotonin receptors was “antagonist”. In addition, at COX 1, the “inhibition of the activity of cyclooxygenase COX 1” value is given as “directly inhibit”.
